Structures are written as SMILES. A value given as a limit tells only on which side of the number the result lay.

This assay has as its system NF-κB activation. The assay is described as follows: Inhibitory activity against NF-κB activation, luciferase reporter assay under TNF-α stimulation. As to conditions: HepG2 cells, TNF-α 40 ng/ml, 4 hours; for inhibition at 1 µg/mL / inhibition at 10 µg/mL: Homo sapiens, read-out: Inhibitory Ratio of NF-κ B Activation(%). It counts as cell-based, human. The procedure: Inhibitory activity against NF-κB activation was measured by referring to the method of Hill et al. (Cell, (USA), in 1993, Vol. 73, No. 2, p. 395-406). Using a transfection reagent(Effectene; QIAGEN), the human hepatoma cell strain HepG2 was transfected with a plasmid (pNFκ Luc Reporter Plasmid; STRATAGENE) integrated with an oligonucleotide having five tandem copies of NF-κB binding sequences(TGGGGACTTTCCGC) on a upstream region of firefly luciferase gene (Luc) according to the QIAGEN's protocol, and the cells were incubated for 6 to 24 hours. Then the cells were cultured for 4 hours after the addition of TNF-α (40 ng/ml) in the presence of a test compound, and intracellular luciferase activity was measured by using PicaGene LT (TOYO INK MFG Co., Ltd.) and a chemical luminescence measurement apparatus(SPECTRAFluor Plus; TECAN). The inhibitory ratio was measured as a ratio relative to a value of the luciferase activity in the absence of the test compound.
(In general: A reporter such as luciferase makes a cellular process visible.)

In the case of `CC(C)(C)OC(=O)C[C@H](NC(=O)CNC(=O)Oc1ccc(Cl)cc1C(=O)Nc1cc(C(F)(F)F)cc(C(F)(F)F)c1)C(=O)OC(C)(C)C` [Compound 63, (S)-2-[N-({N-[1,2-di(tert-butoxycarbonyl)ethyl]carbamoyl}-methyl)carbamoyl]oxy-5-chloro-N-[3,5-bis(trifluoromethyl)phenyl]benzamide], the inhibition at 1 µg/mL (Drug Concentration 1 μg/mL) is 97.1%. The inhibition at 10 µg/mL (Drug Concentration 10 μg/mL) was found to be 98.2%. For `O=C(Nc1cc(C(F)(F)F)ccc1C(F)(F)F)c1cc(Cl)ccc1OP(=O)([O-])O.[Na+]` [Compound 122], the “Inhibitory Ratio of NF-κ B Activation(%)” value is greater than 99.9% (Drug Concentration 1 μg/mL) and greater than 99.9% (Drug Concentration 10 μg/mL). With `CCCCCCCCCC(=O)Oc1ccc(Cl)cc1C(=O)Nc1cc(C(F)(F)F)cc(C(F)(F)F)c1` [Compound 3], the “Inhibitory Ratio of NF-κ B Activation(%)” value is, setting by setting: (Drug Concentration 1 μg/mL) 96.1%; (Drug Concentration 10 μg/mL) 98.4%. With `Cl.NCC(=O)Oc1ccc(Cl)cc1C(=O)Nc1cc(C(F)(F)F)cc(C(F)(F)F)c1` [Compound 23], the “Inhibitory Ratio of NF-κ B Activation(%)” value runs as follows: (Drug Concentration 1 μg/mL) 19.8%; (Drug Concentration 10 μg/mL) 97.3%. As to `O=C(Nc1cc(C(F)(F)F)ccc1C(F)(F)F)c1cc(Br)ccc1OP(=O)([O-])O.[Na+]` [Compound 142], under “Drug Concentration 1 μg/mL”, the “Inhibitory Ratio of NF-κ B Activation(%)” value is listed as greater than 99.9%. In the case of `CC(C)(C)C(=O)c1sc(NC(=O)c2cc(Cl)ccc2OP(=O)([O-])O)nc1C(C)(C)C.[Na+]` [Compound 128], the “Inhibitory Ratio of NF-κ B Activation(%)” value was greater than 99.9% (Drug Concentration 1 μg/mL) and greater than 99.9% (Drug Concentration 10 μg/mL). For the compound `O=C(Nc1cc(C(F)(F)F)cc(C(F)(F)F)c1)c1ccc(Cl)cc1OC(=O)N1CCOCC1` [Compound 80, 4-Chloro-2-(morpholinocarbonyl)oxy-N-[3,5-bis(trifluoromethyl)phenyl]benzamide], the inhibition at 1 µg/mL (Drug Concentration 1 μg/mL) was 91.4%. Besides, the inhibition at 10 µg/mL (Drug Concentration 10 μg/mL) turned out to be 68.4%.

Turning to `CC(C)C[C@H](NC(=O)OC(C)(C)C)C(=O)Oc1ccc(Cl)cc1C(=O)Nc1cc(C(F)(F)F)cc(C(F)(F)F)c1` [Compound 26, 2-[N-(tert-butoxycarbonyl)-L-leucyl]oxy-5-chloro-N-[3,5-bis(trifluoromethyl)phenyl]-benzamide], the inhibition at 1 µg/mL (Drug Concentration 1 μg/mL) was determined as 97.8%. Moreover, where the note is “Drug Concentration 10 μg/mL”, the inhibition at 10 µg/mL amounted to 98.9%. As to `CC(C)(C)OC(=O)NCCCC[C@H](NC(=O)CNC(=O)Oc1ccc(Cl)cc1C(=O)Nc1cc(C(F)(F)F)cc(C(F)(F)F)c1)C(=O)OC(C)(C)C` [Compound 65], the “Inhibitory Ratio of NF-κ B Activation(%)” value runs as follows: (Drug Concentration 1 μg/mL) 95.8%; (Drug Concentration 10 μg/mL) 97.3%. In the case of `CC(C)(C)C(=O)c1sc(NC(=O)c2cc(Cl)ccc2OC(=O)N2CCOCC2)nc1C(C)(C)C` [Compound 92, 5-Chloro-N-{4-[(1,1-dimethyl)ethyl]-5-[(2,2-dimethyl)propionyl]thiazol-2-yl}-2-[(morpholinocarbonyl)oxy]benzamide], for the setting “Drug Concentration 1 μg/mL”, the inhibition at 1 µg/mL amounted to 86.3%. In addition, the inhibition at 10 µg/mL (Drug Concentration 10 μg/mL) was found to be 93.9%. Turning to `CC(C)NC(=O)Oc1ccc(Cl)cc1C(=O)Nc1cc(C(F)(F)F)cc(C(F)(F)F)c1` [Compound 54], the “Inhibitory Ratio of NF-κ B Activation(%)” value is, setting by setting: (Drug Concentration 1 μg/mL) 96.0%; (Drug Concentration 10 μg/mL) 98.0%. Take `O=C(Nc1cc(C(F)(F)F)ccc1C(F)(F)F)c1ccccc1OC(=O)N1CCOCC1` [Compound 132]: the “Inhibitory Ratio of NF-κ B Activation(%)” value (Drug Concentration 1 μg/mL) was 32.3%. For `O=C(Nc1ccc(-c2ccccc2)cc1)c1cc(C(F)(F)F)ccc1OC(=O)N1CCOCC1` [Compound 119], the “Inhibitory Ratio of NF-κ B Activation(%)” value (Drug Concentration 1 μg/mL) is on record as greater than 99.9% and the “Inhibitory Ratio of NF-κ B Activation(%)” value (Drug Concentration 10 μg/mL) was greater than 99.9%.

Take `O=C(Nc1cc(C(F)(F)F)cc(C(F)(F)F)c1)c1cc(Cl)ccc1OC(=O)N1CCC(C(=O)O)CC1` [Compound 74]: the “Inhibitory Ratio of NF-κ B Activation(%)” value is, setting by setting: (Drug Concentration 1 μg/mL) 56.2%; (Drug Concentration 10 μg/mL) 58.1%. In the same order, the values of `O=C(CCC(=O)Oc1ccc(Cl)cc1C(=O)Nc1cc(C(F)(F)F)cc(C(F)(F)F)c1)OCc1ccccc1` [Compound 18] are 95.4% and 98.1%. In the same order, the values of `O=C(O)CN(CC(=O)O)C(=O)OCOc1ccc(Cl)cc1C(=O)Nc1cc(C(F)(F)F)cc(C(F)(F)F)c1` [Compound 106] are 61.0% and 83.5%. Turning to `CC(C)(C)c1cc(NC(=O)c2cc(Br)ccc2OP(=O)([O-])O)cc(C(C)(C)C)c1.[Na+]` [Compound 145], under “Drug Concentration 1 μg/mL”, the “Inhibitory Ratio of NF-κ B Activation(%)” value came to 93.1%.

Turning to `CS(=O)(=O)Oc1ccc(Cl)cc1C(=O)Nc1cc(C(F)(F)F)cc(C(F)(F)F)c1` [Compound 44], the “Inhibitory Ratio of NF-κ B Activation(%)” value (Drug Concentration 1 μg/mL) worked out at 85.9% and the “Inhibitory Ratio of NF-κ B Activation(%)” value (Drug Concentration 10 μg/mL) stood at 98.6%. In the same order, the values of `CC(=O)Oc1ccccc1C(=O)Oc1ccc(Cl)cc1C(=O)Nc1cc(C(F)(F)F)cc(C(F)(F)F)c1` [Compound 5] are 96.1% and 98.0%.

As to `Cl.N[C@@H](Cc1ccccc1)C(=O)Oc1ccc(Cl)cc1C(=O)Nc1cc(C(F)(F)F)cc(C(F)(F)F)c1` [Compound 29], the “Inhibitory Ratio of NF-κ B Activation(%)” value by setting is: (Drug Concentration 1 μg/mL) 90.2%; (Drug Concentration 10 μg/mL) 97.5%. Regarding `CC(C)(C)OC(=O)CC[C@H](NC(=O)OC(C)(C)C)C(=O)Oc1ccc(Cl)cc1C(=O)Nc1cc(C(F)(F)F)cc(C(F)(F)F)c1` [Compound 31, 2-[N-(tert-butoxycarbonyl)-γ-O-(tert-butyl)-α-L-glutamyl]oxy-5-chloro-N-[3,5-bis(trifluoromethyl)phenyl]benzamide], the “Inhibitory Ratio of NF-κ B Activation(%)” value was determined as 97.2% (Drug Concentration 1 μg/mL) and 97.2% (Drug Concentration 10 μg/mL). Consider `CCN(CC)C(=O)Oc1ccc(Cl)cc1C(=O)Nc1cc(C(F)(F)F)cc(C(F)(F)F)c1` [Compound 68], for which the “Inhibitory Ratio of NF-κ B Activation(%)” value (Drug Concentration 1 μg/mL) turned out to be 53.0% and the “Inhibitory Ratio of NF-κ B Activation(%)” value (Drug Concentration 10 μg/mL) is given as 47.4%. The matching figures for `O=C(O)C[C@H](NC(=O)CNC(=O)Oc1ccc(Cl)cc1C(=O)Nc1cc(C(F)(F)F)cc(C(F)(F)F)c1)C(=O)O` [Compound 64]: 96.3% and 97.5%. The matching figures for `CN1CCN(C(=O)Oc2ccc(Cl)cc2C(=O)Nc2cc(C(F)(F)F)cc(C(F)(F)F)c2)CC1` [Compound 72]: 39.4% and 35.2%. The matching figures for `CC(C)C[C@H](NC(=O)[C@@H](N)CC(=O)O)C(=O)Oc1ccc(Cl)cc1C(=O)Nc1cc(C(F)(F)F)cc(C(F)(F)F)c1.Cl` [Compound 38]: 97.8% and 98.6%.

Consider `O=C(Oc1ccc(Cl)cc1C(=O)Nc1cc(C(F)(F)F)cc(C(F)(F)F)c1)c1ccncc1` [Compound 7], for which the “Inhibitory Ratio of NF-κ B Activation(%)” value was 93.9% (Drug Concentration 1 μg/mL) and 98.8% (Drug Concentration 10 μg/mL). Turning to `CN(C)S(=O)(=O)Oc1ccc(Cl)cc1C(=O)Nc1cc(C(F)(F)F)cc(C(F)(F)F)c1` [Compound 48], the “Inhibitory Ratio of NF-κ B Activation(%)” value is, setting by setting: (Drug Concentration 1 μg/mL) 37.9%; (Drug Concentration 10 μg/mL) 90.4%.

With `CCCS(=O)(=O)Oc1ccc(Cl)cc1C(=O)Nc1cc(C(F)(F)F)cc(C(F)(F)F)c1` [Compound 45], the “Inhibitory Ratio of NF-κ B Activation(%)” value (Drug Concentration 1 μg/mL) is 84.7% and the “Inhibitory Ratio of NF-κ B Activation(%)” value (Drug Concentration 10 μg/mL) turned out to be 95.4%.

For the compound `O=C1CCC(=O)N(c2cc(C(F)(F)F)cc(C(F)(F)F)c2)C(=O)c2cc(Cl)ccc2O1` [Compound 114], the inhibition at 1 µg/mL (Drug Concentration 1 μg/mL) was determined as 97.2%. Further, the inhibition at 10 µg/mL (Drug Concentration 10 μg/mL) was determined as 98.5%. Consider `CC(C)(C)C(=O)OCOc1ccc(Cl)cc1C(=O)Nc1cc(C(F)(F)F)cc(C(F)(F)F)c1` [Compound 99], for which the “Inhibitory Ratio of NF-κ B Activation(%)” value runs as follows: (Drug Concentration 1 μg/mL) 92.3%; (Drug Concentration 10 μg/mL) 94.7%. For the compound `CC(C)(C)OC(=O)[C@H](Cc1ccccc1)NC(=O)CNC(=O)Oc1ccc(Cl)cc1C(=O)Nc1cc(C(F)(F)F)cc(C(F)(F)F)c1` [Compound 61, (S)-2-[N-({N-[1-(tert-butoxycarbonyl)-2-phenylethyl]carbamoyl}methyl)carbamoyl]oxy-5-chloro-N-[3,5-bis(trifluoromethyl)phenyl]benzamide], the inhibition at 1 µg/mL (Drug Concentration 1 μg/mL) was 98.6%. The inhibition at 10 µg/mL (Drug Concentration 10 μg/mL) was determined as 99.2%. Turning to `COc1cc(NC(=O)c2cc(Br)ccc2OP(=O)([O-])O)cc(C(F)(F)F)c1.[Na+]` [Compound 149], for the setting “Drug Concentration 1 μg/mL”, the “Inhibitory Ratio of NF-κ B Activation(%)” value is on record as greater than 99.9%. For `COC(=O)CC1(C(=O)OC)Oc2ccc(Cl)cc2C(=O)N1c1cc(C(F)(F)F)cc(C(F)(F)F)c1` (stereo not drawn) [Compound 117], the inhibition at 1 µg/mL (Drug Concentration 1 μg/mL) came out at 34.8%. Further, the inhibition at 10 µg/mL (Drug Concentration 10 μg/mL) stood at 56.7%. Consider `CC(C)C[C@H](NC(=O)[C@H](CCCCNC(=O)OC(C)(C)C)NC(=O)OC(C)(C)C)C(=O)Oc1ccc(Cl)cc1C(=O)Nc1cc(C(F)(F)F)cc(C(F)(F)F)c1` [Compound 39, 2-{N-[N^α,N^ε-di(tert-butoxycarbonyl)-L-lysyl]-L-leucyl}oxy-5-chloro-N-[3,5-bis(trifluoromethyl)phenyl]benzamide], for which the inhibition at 1 µg/mL (Drug Concentration 1 μg/mL) was 96.7%. Moreover, the inhibition at 10 µg/mL (Drug Concentration 10 μg/mL) came to 98.4%. In the case of `COc1ccc(Cl)cc1C(=O)Nc1cc(C(F)(F)F)cc(C(F)(F)F)c1` [Compound 93], the “Inhibitory Ratio of NF-κ B Activation(%)” value turned out to be 44.3% (Drug Concentration 1 μg/mL) and 24.0% (Drug Concentration 10 μg/mL).

These data come from US7626042B2, “O-substituted hydroxyaryl derivatives” (Institute of Medicinal Molecular Design, Inc., priority 2002, dated 2009).
